{"source": "patent US20240408086A1", "about": "“USE OF LUVADAXISTAT FOR THE TREATMENT OF COGNITIVE IMPAIRMENT” (TAKEDA PHARMACEUTICAL COMPANY LIMITED, priority 2021, published 2024)", "tested_on": "adult patients with persistent negative symptoms of schizophrenia", "type": "in vivo, human", "source_text": "To assess changes in cognitive impairment associated with schizophrenia (CIAS), secondary endpoints included the 12-week change from baseline in the Brief Assessment of Cognition in Schizophrenia (BACS) composite score, a measure of cognition across multiple domains, and the Schizophrenia Cognition Rating Scale (SCORS) score, a measure of day-to-day cognitive functioning requiring input from an adult informant. Secondary endpoints were not corrected for multiplicity.\nThe BACS is specifically designed to measure treatment-related improvements in cognition and includes alternate forms. BACS is a reliable and sensitive measure of cognitive function in schizophrenia. The BACS is a cognition assessment battery that assesses 6 domains of cognitive function found to be consistently impaired in schizophrenia: verbal memory; working memory; motor speed; attention; executive functions; and verbal fluency. The primary measure from each test of the BACS is standardized by creating T-scores whereby the mean of the test session of a matched reference healthy participant is set to 50 and the standard deviation set to 10.", "key": {"[1]": {"details": "125 mg once daily, MMRM, preliminary analysis"}, "[2]": {"details": "125 mg once daily, preliminary analysis"}}}
{"smiles": "O=c1[nH]nc(CCc2ccc(C(F)(F)F)cc2)cc1O", "note": "[Compound (I), luvadaxistat]", "values": [{"measurement": "BACS Attention Cognition Domain, Difference from Placebo for Week 6, LS Mean (SE)", "setting": "50 mg, Week 6, MMRM", "result": "−0.1 (1.12)"}, {"measurement": "BACS Executive Functions Cognition Domain, Adjusted Change from Baseline to Week 6, LS Mean (SE)", "setting": "50 mg, Week 6, MMRM", "result": "0.9 (1.22)"}, {"measurement": "BACS Executive Functions Cognition Domain, Difference from Placebo for Week 6, LS Mean (SE)", "setting": "50 mg, Week 6, MMRM", "result": "2.1 (1.53)"}, {"measurement": "BACS Verbal Fluency Cognition Domain, Adjusted Change from Baseline to Week 6, LS Mean (SE)", "setting": "50 mg, Week 6, MMRM", "result": "−0.3 (0.70)"}, {"measurement": "BACS Verbal Fluency Cognition Domain, Difference from Placebo for Week 6, LS Mean (SE)", "setting": "50 mg, Week 6, MMRM", "result": "−0.5 (0.87)"}, {"measurement": "BACS Attention Cognition Domain, Change from Baseline to Week 12, Mean (SD)", "setting": "50 mg, Week 12", "result": "2.2 (6.95)"}, {"measurement": "BACS Attention Cognition Domain, Change from Baseline to Week 12, Median", "setting": "50 mg, Week 12", "result": 2.0}, {"measurement": "BACS Attention Cognition Domain, Week 12, Mean (SD)", "setting": "50 mg, Week 12", "result": "38.0 (11.83)"}, {"measurement": "BACS Attention Cognition Domain, Week 12, Median", "setting": "50 mg, Week 12", "result": 39.0}, {"measurement": "BACS Executive Functions Cognition Domain, Change from Baseline to Week 12, Mean (SD)", "setting": "50 mg, Week 12", "result": "2.6 (7.73)"}, {"measurement": "BACS Executive Functions Cognition Domain, Change from Baseline to Week 12, Median", "setting": "50 mg, Week 12", "result": 1.0}, {"measurement": "BACS Executive Functions Cognition Domain, Week 12, Mean (SD)", "setting": "50 mg, Week 12", "result": "46.4 (10.55)"}, {"measurement": "BACS Executive Functions Cognition Domain, Week 12, Median", "setting": "50 mg, Week 12", "result": 49.5}, {"measurement": "BACS Verbal Fluency Cognition Domain, Change from Baseline to Week 12, Mean (SD)", "setting": "50 mg, Week 12", "result": "1.5 (5.87)"}, {"measurement": "BACS Verbal Fluency Cognition Domain, Change from Baseline to Week 12, Median", "setting": "50 mg, Week 12", "result": 0.0}, {"measurement": "BACS Verbal Fluency Cognition Domain, Week 12, Mean (SD)", "setting": "50 mg, Week 12", "result": "41.8 (10.41)"}, {"measurement": "BACS Verbal Fluency Cognition Domain, Week 12, Median", "setting": "50 mg, Week 12", "result": 40.0}, {"measurement": "BACS Attention Cognition Domain, Adjusted Change from Baseline to Week 12, LS Mean (SE)", "setting": "50 mg, Week 12, MMRM", "result": "2.3 (1.02)"}, {"measurement": "BACS Attention Cognition Domain, Difference from Placebo for Week 12, LS Mean (SE)", "setting": "50 mg, Week 12, MMRM", "result": "0.4 (1.28)"}, {"measurement": "BACS Executive Functions Cognition Domain, Adjusted Change from Baseline to Week 12, LS Mean (SE)", "setting": "50 mg, Week 12, MMRM", "result": "1.8 (1.09)"}, {"measurement": "BACS Executive Functions Cognition Domain, Difference from Placebo for Week 12, LS Mean (SE)", "setting": "50 mg, Week 12, MMRM", "result": "1.2 (1.36)"}, {"measurement": "BACS Verbal Fluency Cognition Domain, Adjusted Change from Baseline to Week 12, LS Mean (SE)", "setting": "50 mg, Week 12, MMRM", "result": "1.2 (0.85)"}, {"measurement": "BACS Verbal Fluency Cognition Domain, Difference from Placebo for Week 12, LS Mean (SE)", "setting": "50 mg, Week 12, MMRM", "result": "0.2 (1.07)"}, {"measurement": "BACS Verbal Memory Cognition Domain, Difference from Placebo for Week 6, LS Mean (SE)", "setting": "125 mg once daily, MMRM, one-sided unadjusted p 0.025, preliminary analysis", "result": "2.5 (1.29)"}, {"measurement": "BACS Composite Score, Difference from Placebo for Week 6, LS Mean (SE)", "setting": "125 mg once daily, MMRM, one-sided unadjusted p 0.038, preliminary analysis", "result": "1.8 (1.02)"}, {"measurement": "BACS Motor Speed Cognition Domain, Difference from Placebo for Week 12, LS Mean (SE)", "setting": "125 mg once daily, MMRM, one-sided unadjusted p 0.067, preliminary analysis", "result": "1.8 (1.18)"}, {"measurement": "BACS Composite Score, Difference from Placebo for Week 12, LS Mean (SE)", "setting": "125 mg once daily, MMRM, one-sided unadjusted p 0.095, preliminary analysis", "result": "1.5 (1.16)"}, {"measurement": "BACS Verbal Memory Cognition Domain, Difference from Placebo for Week 12, LS Mean (SE)", "setting": "125 mg once daily, MMRM, one-sided unadjusted p 0.164, preliminary analysis", "result": "1.4 (1.44)"}, {"measurement": "BACS Working Memory Cognition Domain, Difference from Placebo for Week 6, LS Mean (SE)", "setting": "125 mg once daily, MMRM, one-sided unadjusted p 0.239, preliminary analysis", "result": "0.8 (1.16)"}, {"measurement": "BACS Working Memory Cognition Domain, Difference from Placebo for Week 12, LS Mean (SE)", "setting": "125 mg once daily, MMRM, one-sided unadjusted p 0.406, preliminary analysis", "result": "0.3 (1.35)"}, {"measurement": "BACS Motor Speed Cognition Domain, Difference from Placebo for Week 6, LS Mean (SE)", "setting": "125 mg once daily, MMRM, one-sided unadjusted p 0.753, preliminary analysis", "result": "−0.9 (1.26)"}, {"measurement": "BACS Composite Score, Adjusted Change from Baseline to Week 6, LS Mean (SE)", "setting": "[1]", "result": "1.4 (0.80)"}, {"measurement": "BACS Composite Score, Adjusted Change from Baseline to Week 12, LS Mean (SE)", "setting": "[1]", "result": "2.3 (0.91)"}, {"measurement": "BACS Motor Speed Cognition Domain, Adjusted Change from Baseline to Week 6, LS Mean (SE)", "setting": "[1]", "result": "−1.0 (0.98)"}, {"measurement": "BACS Motor Speed Cognition Domain, Adjusted Change from Baseline to Week 12, LS Mean (SE)", "setting": "[1]", "result": "1.3 (0.93)"}, {"measurement": "BACS Verbal Memory Cognition Domain, Adjusted Change from Baseline to Week 6, LS Mean (SE)", "setting": "[1]", "result": "1.2 (1.01)"}, {"measurement": "BACS Verbal Memory Cognition Domain, Adjusted Change from Baseline to Week 12, LS Mean (SE)", "setting": "[1]", "result": "0.8 (1.13)"}, {"measurement": "BACS Working Memory Cognition Domain, Adjusted Change from Baseline to Week 6, LS Mean (SE)", "setting": "[1]", "result": "0.9 (0.90)"}, {"measurement": "BACS Working Memory Cognition Domain, Adjusted Change from Baseline to Week 12, LS Mean (SE)", "setting": "[1]", "result": "1.0 (1.06)"}, {"measurement": "BACS Composite Score, Change from Baseline to Week 6, Mean (SD)", "setting": "[2]", "result": "1.9 (4.95)"}, {"measurement": "BACS Composite Score, Change from Baseline to Week 6, Median", "setting": "[2]", "result": 2.0}, {"measurement": "BACS Composite Score, Change from Baseline to Week 12, Mean (SD)", "setting": "[2]", "result": "2.9 (6.54)"}, {"measurement": "BACS Composite Score, Change from Baseline to Week 12, Median", "setting": "[2]", "result": 3.5}, {"measurement": "BACS Composite Score, Week 6, Mean (SD)", "setting": "[2]", "result": "35.6 (14.55)"}, {"measurement": "BACS Composite Score, Week 6, Median", "setting": "[2]", "result": 37.0}, {"measurement": "BACS Composite Score, Week 12, Mean (SD)", "setting": "[2]", "result": "37.1 (15.02)"}, {"measurement": "BACS Composite Score, Week 12, Median", "setting": "[2]", "result": 38.5}, {"measurement": "BACS Motor Speed Cognition Domain, Change from Baseline to Week 6, Mean (SD)", "setting": "[2]", "result": "0.0 (5.97)"}, {"measurement": "BACS Motor Speed Cognition Domain, Change from Baseline to Week 6, Median", "setting": "[2]", "result": 0.5}, {"measurement": "BACS Motor Speed Cognition Domain, Change from Baseline to Week 12, Mean (SD)", "setting": "[2]", "result": "2.5 (7.60)"}, {"measurement": "BACS Motor Speed Cognition Domain, Change from Baseline to Week 12, Median", "setting": "[2]", "result": 2.0}, {"measurement": "BACS Motor Speed Cognition Domain, Week 6, Mean (SD)", "setting": "[2]", "result": "39.6 (10.80)"}, {"measurement": "BACS Motor Speed Cognition Domain, Week 6, Median", "setting": "[2]", "result": 39.0}, {"measurement": "BACS Motor Speed Cognition Domain, Week 12, Mean (SD)", "setting": "[2]", "result": "42.6 (10.35)"}, {"measurement": "BACS Motor Speed Cognition Domain, Week 12, Median", "setting": "[2]", "result": 42.0}, {"measurement": "BACS Verbal Memory Cognition Domain, Change from Baseline to Week 6, Mean (SD)", "setting": "[2]", "result": "1.8 (7.71)"}, {"measurement": "BACS Verbal Memory Cognition Domain, Change from Baseline to Week 6, Median", "setting": "[2]", "result": 2.5}, {"measurement": "BACS Verbal Memory Cognition Domain, Change from Baseline to Week 12, Mean (SD)", "setting": "[2]", "result": "1.6 (8.07)"}, {"measurement": "BACS Verbal Memory Cognition Domain, Change from Baseline to Week 12, Median", "setting": "[2]", "result": 1.0}, {"measurement": "BACS Verbal Memory Cognition Domain, Week 6, Mean (SD)", "setting": "[2]", "result": "42.4 (12.62)"}, {"measurement": "BACS Verbal Memory Cognition Domain, Week 6, Median", "setting": "[2]", "result": 42.0}, {"measurement": "BACS Verbal Memory Cognition Domain, Week 12, Mean (SD)", "setting": "[2]", "result": "42.3 (13.54)"}, {"measurement": "BACS Verbal Memory Cognition Domain, Week 12, Median", "setting": "[2]", "result": 42.5}, {"measurement": "BACS Working Memory Cognition Domain, Change from Baseline to Week 6, Mean (SD)", "setting": "[2]", "result": "1.5 (5.89)"}]}
